Residues, ends and D or L forms follow the SMILES beside them. *: point of attachment. Cbz = O=C(OCc1ccccc1)*
Target: mutant p53 (Homo sapiens, UniProt P04637, P309S/R273H)
Format: cell-based
Design: Mutant p53 protein levels in mutant p53-expressing cancer cells treated with NSC59984; endogenous in cells; host or cells: SW480, DLD-1, Hop92, RXF393; effect on NSC59984-mediated down-regulation of mutant p53: dose or concentration left out as unconfirmed
Conditions: SW480 cells, MG132 with NSC59984, 16 hr
Method: The primary antibodies indicated in the figures were incubated with the transferred PVDF in blocking buffer at 4° C. overnight. Antibody binding was detected on PVDF with appropriate IRDye-secondary antibodies (LI-COR Biosciences, USA) by the ODYSSEY infrared imaging system.

CC(C)C[C@@H](C=O)NC(=O)[C@H](CC(C)C)NC(=O)[C@H](CC(C)C)NC(=O)OCc1ccccc1 [MG132, reference compound] (Cbz-Leu-Leu-Leu-aldehyde)
effect on NSC59984-mediated down-regulation of mutant p53: rescued
